Marks after values point to notes of the source that are not given here.
Columns and labels:
[1] = biological target: T1, human 5-HT2C-INI (Homo sapiens, UniProt P28335); assay: Phosphoinositide hydrolysis functional assay; format: cell-based; settings: for EC50 / Functional Assay (EC50) 5-HT2C: activation of phosphoinositide hydrolysis, stably expressed receptor; for Emax: value in brackets, read-out: percent Vmax relative to serotonin at 100%, 5-HT2C (converted)
T1 construct: expressed in transfected cells
T1 sequence (P28335 33-458): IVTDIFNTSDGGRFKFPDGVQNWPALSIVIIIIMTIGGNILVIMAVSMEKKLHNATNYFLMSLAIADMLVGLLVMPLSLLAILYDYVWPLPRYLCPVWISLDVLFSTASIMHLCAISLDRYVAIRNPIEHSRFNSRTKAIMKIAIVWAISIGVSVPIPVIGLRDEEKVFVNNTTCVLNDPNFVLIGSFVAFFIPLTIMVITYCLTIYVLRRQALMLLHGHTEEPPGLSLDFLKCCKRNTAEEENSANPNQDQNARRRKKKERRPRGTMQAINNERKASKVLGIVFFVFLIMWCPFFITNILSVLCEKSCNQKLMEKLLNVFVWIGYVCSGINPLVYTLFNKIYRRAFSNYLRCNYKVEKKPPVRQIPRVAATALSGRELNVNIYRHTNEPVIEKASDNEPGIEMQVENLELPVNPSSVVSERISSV
Experimental: (§1) Phosphoinositide hydrolysis assays were performed with stably (5-HT2A, 5-HT2C) or transiently (5-HT2B) expressed receptors plated in 24-well culture plates. Transfected cells were loaded with […] overnight in inositol-free DMEM without serum. The next day, phosphate accumulation assays were performed in a modified Krebs-bicarbonate buffer. Kact (nmol/L) and percent Vmax (relative to 5-HT) values were calculated (Roth, B. L., Shoham, M., Choudhary, M., Khan, N. “Identification of Conserved Aromatic Residues Essential for Agonist Binding and Second Messenger Production at 5-Hydroxytryptamine 2A Receptors” Mol. Pharmacol. 1997, 52, 259; Roth, B. L., Choudhary, M., Khan, N., Uluer, A. “High-affinity Agonist Binding is not Sufficient for Agonist Efficacy at 5-Hydroxytryptamine 2A Receptors: Evidence in Favor of a Modified Ternary Complex Model” J. Pharmacol. Exp. Ther. 1997, 280, 576).
(§2) Functional Assay (EC50) in nM. Data represent mean EC50 values for activation of phospho-inositide hydrolysis in cells expressing human 5-HT2A, 5-HT2B or 5-HT2C-INI receptors, relative to serotonin at 100%. When the standard deviation is given, N≧3.

[2] = biological target: 5-HT2A (Homo sapiens, UniProt P28223); assay: Phosphoinositide hydrolysis functional assay; format: cell-based; design: expressed in transfected cells; settings: for EC50 / Functional Assay (EC50) 5-HT2A: activation of phosphoinositide hydrolysis, stably expressed receptor; for percent Vmax relative to serotonin at 100%, 5-HT2A: value in brackets
Chain of 5-HT2A (P28223 whole entry): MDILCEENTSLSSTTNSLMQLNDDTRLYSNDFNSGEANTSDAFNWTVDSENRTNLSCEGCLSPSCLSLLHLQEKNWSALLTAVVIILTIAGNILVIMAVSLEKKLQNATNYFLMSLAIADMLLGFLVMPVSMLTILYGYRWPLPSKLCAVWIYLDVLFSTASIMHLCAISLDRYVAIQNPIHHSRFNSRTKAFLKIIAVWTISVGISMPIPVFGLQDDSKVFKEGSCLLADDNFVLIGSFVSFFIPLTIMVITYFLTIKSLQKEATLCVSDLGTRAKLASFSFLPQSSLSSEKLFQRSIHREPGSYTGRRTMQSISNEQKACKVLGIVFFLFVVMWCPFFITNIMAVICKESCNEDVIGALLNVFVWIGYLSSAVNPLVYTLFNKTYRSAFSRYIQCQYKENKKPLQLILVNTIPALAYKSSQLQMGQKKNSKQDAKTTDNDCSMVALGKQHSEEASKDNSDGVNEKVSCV
Experimental: as §1, §2

[3] = biological target: 5-HT2B (Homo sapiens, UniProt P41595); assay: Phosphoinositide hydrolysis functional assay; format: cell-based; design: expressed in transfected cells; settings: activation of phosphoinositide hydrolysis, transiently expressed receptor
Chain of 5-HT2B (P41595 whole entry): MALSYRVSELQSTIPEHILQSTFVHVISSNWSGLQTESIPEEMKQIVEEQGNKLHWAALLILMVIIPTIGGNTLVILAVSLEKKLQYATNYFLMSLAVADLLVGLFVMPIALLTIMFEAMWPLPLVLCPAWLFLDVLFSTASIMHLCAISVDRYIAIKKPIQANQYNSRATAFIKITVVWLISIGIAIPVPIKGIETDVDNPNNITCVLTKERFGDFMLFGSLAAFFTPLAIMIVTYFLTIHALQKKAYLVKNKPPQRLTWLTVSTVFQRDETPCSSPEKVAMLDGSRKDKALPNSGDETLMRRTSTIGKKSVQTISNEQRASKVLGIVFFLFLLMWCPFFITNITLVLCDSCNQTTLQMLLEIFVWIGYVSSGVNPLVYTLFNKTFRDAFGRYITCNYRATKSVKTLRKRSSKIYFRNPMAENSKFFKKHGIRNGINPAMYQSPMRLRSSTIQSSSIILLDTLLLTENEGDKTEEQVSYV
Experimental: as §1, §2

[4] = test system: itch-associated scratching induced by serotonin; assay: Animal model for OCD: serotonin-induced scratching; format: in vivo, male Swiss-Webster mice; settings: for Number of Scratches as Percentage of Control: inducer Serotonin
Experimental: The 5-HT action is at least partly mediated by 5-HT2 receptors in the skin, as shown by blocking with specific antagonists (Yamaguchi, T., Nagasawa, T., Satoh, M., Kuraishi, Y. “Itch-associated Response Induced by Intradermal Serotonin Through 5-HT2 Receptors in Mice” Neurosci. Res. 1999, 35, 77). The effect of test compounds on itch-associated scratching in the mice may indicate their action on 5-HT receptors, and a study was carried out as an animal model for OCD. The subjects were male Swiss-Webster mice, 4-6 weeks old, weighing 25-45 g. Mice were housed 5 per cage, given free access to standard mouse food and water except during experiments, and maintained in a temperature-controlled room (70° F.). Serotonin and all test drugs were made up with ascorbic acid to protect against oxidation. Two mice, one a control, the other experimental, were tested each time. Each mouse was separately placed into a plexiglas box.
Mice were injected subcutaneously between the shoulder blades with either 0.1 ml of serotonin, 0.4 mg per ml in 0.15 M saline plus ascorbic acid, 1 mg/ml, or compound 48-80 (the copolymer product of N-methyl-p-methoxyphenethylamine with formaldehyde), 1.0 mg/ml in saline plus ascorbic acid. Test compounds were injected i.p. 5 minutes before the inducer. The cumulative number of scratches with a hind leg was recorded at 5 minute intervals for 30 minutes. One saline injected control and one test animal were tested together in each assay.

[5] = Appetite suppression in mice, acute assay (food consumption); format: in vivo; settings: for Mean food consumption 60 min. after injection: g (±SEM) Compound / Mean food consumption 90 min. after injection: g (±SEM) Compound: mice deprived of food 18 hours
Experimental: Mice were deprived of food, but not water, for 18 hours. They were then injected i.p. with test compounds dissolved in 0.9% NaCl containing 1 mg per ml ascorbic acid for protection against oxidation. Each mouse was placed in an individual cage for 30 minutes and then presented with a small petri dish containing a gel made from gelatin, powdered milk and sucrose. The dish was weighed at zero time and at 15-minute intervals for the next hour in order to quantitate food consumption. Controls were injected with saline-ascorbic acid; ±fenfluramine was used as an active control. Control consumption generally ranged from 1.5 to 2.0 grams.

[6] = Appetite suppression in mice, chronic assay (body weight); format: in vivo
Experimental: Mice were injected i.p. at intervals of 2 or 3 days and weighed repeatedly (6 or 7 total injections). Controls were injected with saline. Weighing and injection were carried out between 11 AM and 1 PM.

[7] = 10 mg/kg i.p. 5 minutes before inducer Serotonin
[8] = 20 mg/kg i.p. at intervals of 2 or 3 days
[9] = dose cell empty (10 mg/kg printed on the Saline line above), i.p. at intervals of 2 or 3 days

SMILES: CC(C)n1cc(CCN(C)C)c2c(O)ccc(F)c21
- melting point: 108 to 110 °C

SMILES: CCn1cc(CCN(C)C)c2c(O)cc(F)cc21 [Compound O-4284, 3-(2-Dimethylaminoethyl)-6-fluoro-1-ethyl-1H-indol-4-ol]
- EC50 [1]: 0.54 nM
- Emax [1]: 73%
- EC50 [2]: 2.9 nM
- percent Vmax relative to serotonin at 100%, 5-HT2A [2]: 73%
- Functional Assay (EC50) 5-HT2B [3]: Inactive

SMILES: CN(C)CCc1cn(CC2CC2)c2cc(F)cc(O)c12 [Compound O-4287, 3-(2-Dimethylaminoethyl)-6-fluoro-1-cyclopropylmethyl-1H-indol-4-ol]
- EC50 [1]: 1160 nM
- Emax [1]: 41%
- melting point: 110 to 112 °C
- EC50 [2]: 3740 nM
- percent Vmax relative to serotonin at 100%, 5-HT2A [2]: 63%
- Functional Assay (EC50) 5-HT2B [3]: Inactive

SMILES: CCS(=O)(=O)n1cc(CCN(C)C)c2c(O)cc(F)cc21 [Compound O-4312, 3-(2-Dimethylaminoethyl)-6-fluoro-1-ethylsulfonyl-1H-indol-4-ol]
- Functional Assay (EC50) 5-HT2C [1]: inactive
- Functional Assay (EC50) 5-HT2A [2]: inactive
- Functional Assay (EC50) 5-HT2B [3]: Inactive

SMILES: CN(C)CCc1cn(S(C)(=O)=O)c2cc(F)cc(O)c12
- melting point: 184 to 186 °C

SMILES: CN(C)CCc1cn(C)c2cc(F)cc(O)c12 [Compound O-4244, 3-(2-Dimethylaminoethyl)-6-fluoro-1-methyl-1H-indol-4-ol]
- EC50 [1]: 0.66 nM
- Emax [1]: 75%
- melting point: 132 to 134 °C
- EC50 [2]: 0.55 nM
- percent Vmax relative to serotonin at 100%, 5-HT2A [2]: 61%
- Functional Assay (EC50) 5-HT2B [3]: Inactive

SMILES: CNCCC(Oc1ccc(C(F)(F)F)cc1)c1ccccc1 (stereo not shown) [Fluoxetine, reference compound]
- Average Number of Scratches 30 min. after injection [4, 7]: 15
- Number of Scratches as Percentage of Control ([4]; 10 mg/kg i.p.): 4.1%

SMILES: CCCCn1cc(CCN(C)C)c2c(O)cc(F)cc21 [Compound O-4286, 3-(2-Dimethylaminoethyl)-6-fluoro-1-butyl-1H-indol-4-ol]
- Functional Assay (EC50) 5-HT2C [1]: inactive
- melting point: 92 to 95 °C
- Functional Assay (EC50) 5-HT2A [2]: Inactive
- Functional Assay (EC50) 5-HT2B [3]: Inactive

SMILES: CCCn1cc(CCN(C)C)c2c(O)cc(F)cc21 [Compound O-4285, 3-(2-Dimethylaminoethyl)-6-fluoro-1-propyl-1H-indol-4-ol]
- EC50 [1]: 131 nM
- Emax [1]: ~75%
- melting point: 104 to 106 °C
- EC50 [2]: 166 nM
- percent Vmax relative to serotonin at 100%, 5-HT2A [2]: 63%
- Functional Assay (EC50) 5-HT2B [3]: Inactive

SMILES: CCCn1cc(CCN(C)C)c2c(OP(=O)(O)O)ccc(F)c21 [Compound O-4309, 3-(2-Dimethylaminoethyl)-7-fluoro-1-propyl-1H-indol-4-phosphate]
- % of Control (food consumption 60 min. after injection) ([5]; 10 mg/kg i.p.): 41%
- % of Control (food consumption 90 min. after injection) ([5]; 10 mg/kg i.p.): 64%
- Mean food consumption 60 min. after injection: g (±SEM) Compound ([5]; 10 mg/kg i.p.): 0.28 (.06)* g
- Mean food consumption 90 min. after injection: g (±SEM) Compound ([5]; 10 mg/kg i.p.): 0.68 (0.1)* g
- % of Control (food consumption 60 min. after injection) ([5]; 20 mg/kg i.p.): 9%
- % of Control (food consumption 90 min. after injection) ([5]; 20 mg/kg i.p.): 18%
- Mean food consumption 60 min. after injection: g (±SEM) Compound ([5]; 20 mg/kg i.p.): .07 (.02)* g
- Mean food consumption 90 min. after injection: g (±SEM) Compound ([5]; 20 mg/kg i.p.): 0.22 (.05)* g
- Day 7 % Δ from starting weight [6, 8]: −2.3* %
- Day 7 Difference within same group [6, 8]: -1.20 g
- Day 14 % Δ from starting weight [6, 8]: −6.03* %
- Day 14 Difference within same group [6, 8]: -3.20 g
- Average Number of Scratches 30 min. after injection ([4]; 2.5 mg/kg i.p. 5 minutes before inducer Serotonin): 181.4
- Number of Scratches as Percentage of Control ([4]; 2.5 mg/kg i.p.): 97.4%
- Average Number of Scratches 30 min. after injection ([4]; 5 mg/kg i.p. 5 minutes before inducer Serotonin): 89.6
- Number of Scratches as Percentage of Control ([4]; 5 mg/kg i.p.): 17.8%
- Average Number of Scratches 30 min. after injection [4, 7]: 8.8
- Number of Scratches as Percentage of Control ([4]; 10 mg/kg i.p.): 1.6%

SMILES: CC(C)n1cc(CCN(C)C)c2c(O)cc(F)cc21 [Compound O-4310, 3-(2-Dimethylaminoethyl)-6-fluoro-1-isopropyl-1H-indol-4-ol]
- EC50 [1]: 592 nM
- Emax [1]: ~50%
- EC50 [2]: 5 nM
- percent Vmax relative to serotonin at 100%, 5-HT2A [2]: 89%
- Functional Assay (EC50) 5-HT2B [3]: Inactive

SMILES: CN(C)CCc1cn(S(C)(=O)=O)c2c(F)ccc(O)c12
- melting point: 181 to 183 °C

SMILES: CCNC(C)Cc1cccc(C(F)(F)F)c1 (stereo not shown) [+/−Fenfluramine, Fenfluramine, reference compound]
- % of Control (food consumption 60 min. after injection) ([5]; 3 mg/kg i.p.): 95%
- % of Control (food consumption 90 min. after injection) ([5]; 3 mg/kg i.p.): 95%
- Mean food consumption 60 min. after injection: g (±SEM) Compound ([5]; 3 mg/kg i.p.): 1.2 (.12) g
- Mean food consumption 90 min. after injection: g (±SEM) Compound ([5]; 3 mg/kg i.p.): 1.60 (.14) g
- % of Control (food consumption 60 min. after injection) ([5]; 5 mg/kg i.p.): 61%
- % of Control (food consumption 90 min. after injection) ([5]; 5 mg/kg i.p.): 67%
- Mean food consumption 60 min. after injection: g (±SEM) Compound ([5]; 5 mg/kg i.p.): 0.90 (.04)* g
- Mean food consumption 90 min. after injection: g (±SEM) Compound ([5]; 5 mg/kg i.p.): 1.18 (.17)* g
- % of Control (food consumption 60 min. after injection) ([5]; 10 mg/kg i.p.): 30%
- % of Control (food consumption 90 min. after injection) ([5]; 10 mg/kg i.p.): 35%
- Mean food consumption 60 min. after injection: g (±SEM) Compound ([5]; 10 mg/kg i.p.): 0.41 (.11)* g
- Mean food consumption 90 min. after injection: g (±SEM) Compound ([5]; 10 mg/kg i.p.): 0.56 (.13)* g
- Day 7 % Δ from starting weight [6, 9]: −9.54* %
- Day 7 Difference within same group [6, 9]: -4.74 g
- Day 14 % Δ from starting weight [6, 9]: −10.7* %
- Day 14 Difference within same group [6, 9]: -5.32 g
- Average Number of Scratches 30 min. after injection [4, 7]: 12.8*
- Number of Scratches as Percentage of Control ([4]; 10 mg/kg i.p.): 6.5%
